The test system of assay [1] is decellularized rat lung scaffolds. Nature of the assay: In vivo metabolic labeling of rat lung ECM with azide-labeled sugars.
Description: All animal experiments were approved by the Massachusetts General Hospital Institutional Animal Care and Use Committee and performed in compliance with the Animal Welfare Act. Male Sprague-Dawley rats (100-125 g, Charles River Laboratories) was administered with metabolic labeling reagents (Ac4GalNAz, Ac4GlcNAz or Ac4ManNAz) (30 mg/day, Click Chemistry Tools) via intraperitoneal injection daily for three days. […] Decellularized organ and tissue scaffolds were washed sequentially with distilled water, 1% Triton X and PBS.
(§1) All samples were fixed with 4% paraformaldehyde (Boston BioProducts), paraffin-embedded, and sectioned at 5-μm thickness. Following deparaffinization, rehydration and antigen retrieval using Antigen Unmasking Solution (Vector Laboratories), the sections were processed for either on-section click reaction or regular histological staining. For on-section click reaction, sections of acellular organ scaffolds derived from in vivo or ex vivo metabolic engineering were incubated with Biotin-Alkyne click reaction mix, with and without copper (II) sulfate, for 1 hour at room temperature, followed by extensive washing with PBS. For regular histological staining of biotin and Laminin, the sections were incubated with Rabbit-anti-Laminin antibody (Abcam, ab11575, 1:200) overnight at 4° C., followed by staining with Alexa Fluor 488-conjugated Donkey-anti-Rabbit antibody (A-21206, 1:500) and Alexa Fluor 647-conjugated Streptavidin (Life Technologies, S-32357, 1:500). Images were acquired using a Nikon Eclipse TE200 microscope and NIS-Elements imaging software. The fluorescence intensity of Azide-Biotin-Streptavidin and Laminin staining was quantified using ImageJ (NIH).
To conjugate Biotin-Alkyne onto the azide-labeled acellular lung ECM for Western blot analysis, a small piece of lung tissue was homogenized with gentleMACS Dissociator (Miltenyi Biotec) in PBS, and incubated with 1 ml Biotin-Alkyne click reaction mix for 1 hour at room temperature, followed by extensive washing in PBS. The ECM proteins from the clicked lung tissue was extracted using urea buffer as described below. […] Following BCA quantification, the protein samples were analyzed using SDS-PAGE under reducing condition, transferred to nitrocellulose blotting membranes, and incubated with primary antibodies overnight at 4° C., followed by incubation with HRP-conjugated secondary antibodies for 1 hour at room temperature before autoradiography. […]
Assay [2] has as its system decellularized scaffolds of the rat carotid artery, heart, liver, kidney and skin. Description: In vivo metabolic labeling of ECM of other rat organs/tissues.
Description: Male Sprague-Dawley rats (100-125 g, Charles River Laboratories) was administered with metabolic labeling reagents (Ac4GalNAz, Ac4GlcNAz or Ac4ManNAz) (30 mg/day, Click Chemistry Tools) via intraperitoneal injection daily for three days. […] Full-thickness skin grafts were harvested from the abdomen of the animal and decellularized by immersion with agitation in 1% SDS. Decellularized organ and tissue scaffolds were washed sequentially with distilled water, 1% Triton X and PBS.
as §1
For metabolic engineering of organs/tissues in vivo in the rat model, azide-labeled sugars (300 mg/kg body weight in 70% DMSO) were administered through intraperitoneal injection daily. One day after the last azide-labeled sugar administration, organs/tissues were harvested and perfusion decellularized (See FIGS. 1 and 13). The presence of azide labeling in the decellularized scaffolds were evaluated by performing copper-catalyzed click reaction. […]
Another assay has as its system rat lung ECM. Nature of the assay: Ex vivo metabolic engineering of rat lung ECM. The following applies: 50 μM, one day, bioreactor perfusion 5 ml/min, Cu(I) catalyst in click with biotin-alkyne. Here is the method: For ex vivo metabolic engineering of the rat lung, the lung was freshly harvested from a male Sprague-Dawley rat (100-125 g). The isolated rat lung was cultured in 100 ml of DMEM/F12 medium containing 10% fetal bovine serum (DMEM/F12-FBS), with the supplementation of Ac4GalNAz (50 μM) or DMSO (0.1%), for 24 hours in a bioreactor under constant rate perfusion (5 ml/min) through the PA, followed by perfusion decellularization as described above.
All samples were fixed with 4% paraformaldehyde (Boston BioProducts), paraffin-embedded, and sectioned at 5-μm thickness. Following deparaffinization, rehydration and antigen retrieval using Antigen Unmasking Solution (Vector Laboratories), the sections were processed for either on-section click reaction or regular histological staining. […] For regular histological staining of biotin and Laminin, the sections were incubated with Rabbit-anti-Laminin antibody (Abcam, ab11575, 1:200) overnight at 4° C., followed by staining with Alexa Fluor 488-conjugated Donkey-anti-Rabbit antibody (A-21206, 1:500) and Alexa Fluor 647-conjugated Streptavidin (Life Technologies, S-32357, 1:500). […] The fluorescence intensity of Azide-Biotin-Streptavidin and Laminin staining was quantified using ImageJ (NIH). […]
The presence of azide labeling in the decellularized scaffolds were evaluated by performing copper-catalyzed click reaction. […]

For assay [3], the system named is acellular porcine lung ECM. Nature of the assay: Ex vivo metabolic engineering of porcine left lung ECM. The following applies: 50 μM, one day, perfusion 300 ml/min.
Description: For ex vivo metabolic engineering of the porcine lung, the left lung was freshly isolated from a male Yorkshire swine (18-20 kg, Tufts University). The isolated porcine left lung was cultured DMEM/F12-FBS medium, with the supplementation of Ac4GalNAz (50 μM) or DMSO (0.1%), for 24 hours in a bioreactor under constant rate perfusion (300 ml/min) through the left main PA. 3 L of medium was initially used and was refreshed once with another 2 L of medium after the initial 16 hours of culture. A parallel oxygenation loop was used during the culture at a flow rate of 150 ml/min. Following culture, the porcine left lung was decellularized by sequential single-pass perfusion through the left main PA with 0.5% SDS, distilled water, 1% Triton X and PBS, adapted from a previously described method (Zhou, H. et al. Bioengineering Human Lung Grafts on Porcine Matrix. Annals of Surgery Publish Ahead of Print (2017)). […] The fluorescence intensity of Azide-Biotin-Streptavidin and Laminin staining was quantified using ImageJ (NIH). […] Following BCA quantification, the protein samples were analyzed using SDS-PAGE under reducing condition, transferred to nitrocellulose blotting membranes, and incubated with primary antibodies overnight at 4° C., followed by incubation with HRP-conjugated secondary antibodies for 1 hour at room temperature before autoradiography. […]
The nature of assay [4]: Copper-free click reaction of DBCO-activated biotin on donor lung during cold preservation. On the set-up: species or system rat. The following applies: DBCO-activated biotin 100 μM in Perfadex on ice, within one hour.
Description: The procedure involves two steps. In the first step, the donor rat was injected with Ac4GalNAz for three days (as described in Example 4). This allowed for metabolic labeling of the donor lung with azido tags. In the second step, the donor lung with azido labeling was preserved in preservation solution (Perfadex) containing DBCO-activated biotin at 100 μM concentration on ice for 1 hour. The lung was then intensively washed with preservation solution (Perfadex) and prepared for transplantation. The lung is fixed for histological staining of the immobilized biologically active molecule (as exemplified by biotin).
DBCO-activated biotin was used a proof-of-principle.
Assay [5] is described as follows: Click reaction of azide-labeled decellularized rat epigastric flaps with Vancomycin-alkyne. The following applies: Ac4GalNAz-labeled REF versus DMSO control, Vancomycin-alkyne 100 μM click. On the procedure:
Vancomycin is made clickable by conjugating an alkyne group to the only primary amine present as described above (see, e.g., FIG. 22, Example 3). The structure of the resulting clickable vancomycin-alkyne was confirmed by LC-MS/MS analysis (FIG. 23). Using the previously described click reaction, Vancomycin was immobilized onto the ECM. Copper-catalyzed click reaction was performed on decellularized rat epigastric flaps by perfusion (0.5 ml/min) using Vancomycin-alkyne (100 μM) and Click-iT® Cell Reaction Buffer Kit (ThermoFisher, Catalog number: C10269) for one hour at room temperature, followed by intensive washing and detection of immobilized vancomycin using a vancomycin-specific antibody.

“Also recorded” adds a separate entry of the source.

Regarding `CC(=O)OC[C@H]1OC(OC(C)=O)[C@H](NC(=O)CN=[N+]=[N-])[C@@H](OC(C)=O)[C@H]1OC(C)=O` (stereo partly shown) [Ac4GalNAz, tetraacylated N-azidoacetylgalactosamine], the “metabolic labeling efficiency of decellularized rat lung scaffolds” value in assay [1] (3 days of metabolic labeling in donor rats, comparing to Ac4GlcNAz and Ac4ManNAz) was “superior labeling efficiency”. Besides, the “biotin labeling of isolated lung ECM proteins by western blot” value in assay [1] (after click conjugation with biotin-alkyne) is reported as “abundance of biotin labeling”. For the same compound, in assay [1] (azide-biotin-streptavidin intensity normalized to Laminin, compared with Ac4ManNAz and Ac4GlcNAz), the “metabolic azide labeling intensity in acellular lungs” value is “strongest”. The “in vivo metabolic azide labeling of decellularized scaffolds” value in assay [2] (rat carotid artery, heart, liver, kidney and skin, three-day intraperitoneal administration) is “efficient; also recorded: strong and specific ECM labeling”. In addition, the “metabolic labeling of decellularized scaffolds of blood vessels and skin flaps” value in assay [2] (rat, 3 days of metabolic labeling) is recorded as “efficient metabolic labeling”. In addition, the “azide labeling of the lung ECM after ex vivo culture” value in the assay with rat lung ECM is listed as “robust covalent azide labeling”. Further, in assay [3], the “azide incorporation into acellular porcine lung ECM after ex vivo culture” value was “specific and covalent azide incorporation”.
Consider `O=C(O)CCCC[C@@H]1SC[C@@H]2NC(=O)N[C@@H]21` [biotin], for which the “immobilization of biotin onto donor lung tissue” value in assay [4] is reported as “high efficiency”.
As to `CN[C@H](CC(C)C)C(=O)N[C@H]1C(=O)N[C@@H](CC(N)=O)C(=O)N[C@H]2C(=O)N[C@H]3C(=O)N[C@H](C(=O)N[C@H](C(=O)O)c4cc(O)cc(O)c4-c4cc3ccc4O)[C@H](O)c3ccc(c(Cl)c3)Oc3cc2cc(c3O[C@@H]2O[C@H](CO)[C@@H](O)[C@H](O)[C@H]2O[C@H]2C[C@](C)(N)[C@H](O)[C@H](C)O2)Oc2ccc(cc2Cl)[C@H]1O` [vancomycin, Vancomycin], the “vancomycin staining fluorescence intensity on whole mount REF” value in assay [5] (p<0.001) is recorded as “increase”. The “vancomycin staining fluorescence intensity on REF cross-sections” value in assay [5] (p<0.05) is reported as “increase”.

The record behind these values is patent US12441751B2, “Metabolic labeling and molecular enhancement of biological materials using bioorthogonal reactions” (priority 2016, dated 2025).
